Laboratory results reported in patent US12460003B2, “Methods of assessing and treating cancer in subjects having dysregulated lymphatic systems” (Ensemble Group Holdings, priority 2016, dated 2025).

Experiments:
[1] = tested on: LLC lung cancer or 4T1 breast cancer cells; experiment: Example 2: syngeneic tumor models treated with lymphatic system modulator plus immunotherapy or chemotherapy; type: in vivo, syngeneic mice (C57 Black 6 and BALB/c)
Experimental: One to two million cells of either LLC lung cancer or 4T1 breast cancer cells are subcutaneously implanted into syngeneic mice (C57 Black 6 and BALB/c). Animals are treated with vehicle alone as a control, with chemotherapy (cisplatin), or with immunotherapy alone (anti-PD-1 mAb). Animals are imaged by intravascular ultrasound (IVUS), CT/PET, or MRI, for growth of the primary tumor and for metastatic spread of the tumor. Blood samples are obtained for a multiplexed measure of serum biomarkers of lymphatic biology function (Millipore mouse 24 plex; MAGPMAG-24K). Around Study Day 10, animals are injected with 1-1.5 million more tumor cells into the tail vein. Between Study Days 13 and 16, the primary tumor is surgically resected, and animals resume treatment. […]
Animals are imaged weekly, and blood for serum multiplex measurements is continued and evaluated. Survival studies and analyses are performed, and animals are evaluated based on overall survival, progression-free survival, objective and durable response, and serum biomarker measurements. Lung tissue, lymphatics, and regional lymph nodes and tumor tissue are concurrently evaluated upon animal sacrifice for functional immune evaluation and analysis of the tumor and disease analysis.

[2] = tested on: 4T1 and LLC tumor cells, also transfected to overexpress VEGF-C; experiment: Example 3: syngeneic 4T1 and LLC models incl. VEGF-C overexpressing tumor cells, lymphangitic carcinomatosis; type: in vivo, syngeneic mice; settings: preventative treatment, alone or with an immune modulator or chemotherapy
Experimental: The experiments from Example 2 are performed using the same animal models (4T1 and LLC) in syngeneic mice. Another group of tumor cells is transfected to overexpress VEGF-C to stimulate severe lymphatic dysregulation. Overexpression of VEGF C by tumor cells can result in a severe lymphatic dysregulation and an extremely aggressive lymphangitic carcinomatosis, which is a subset of the groups of dysregulated lymphatic disorders resistant to immunotherapy (Example 1). […] In this experiment, it is evaluated whether advanced tumors with inherent lymphatic dysregulation or with exaggerated lymphatic dysregulation driven by VEGF C hyperexpression can be treated and whether treatment can prevent mice with cancers from progressing to severe lymphangitic carcinomatosis.
Treatment groups include (1) anti-PD-1 mAb alone; (2) anti-PD-1-mAb plus lymphatic system modulator (anti-VEGF C or anti-VEGF R3 mAb, or SAR131675); (3) cisplatin alone; (4) lymphatic system modulator (anti-VEGF C or anti-VEGF R3 mAb, or SAR131675) plus cisplatin; and (5) negative control (no treatment).

SMILES | response of animals to single agent ([1]; agent alone) | objective and functional outcomes [2] | progression to lymphangitic carcinomatosis [2] | immunological function ([1]; concurrent with immune modulator (checkpoint inhibitor) or chemotherapy (cisplatin))
N.N.[Cl][Pt][Cl] [cisplatin] | no to marginal response |  |  | 
CCn1c(N)c(C(=O)NC)c(=O)c2ccc(C#C[C@@](C)(O)COC)nc21 [SAR131675] |  | significantly improves | no mouse progresses | functional immunological improvements
